Assay results published in patent publication US20160113932A1, “TREATMENT OF CANCERS USING PI3 KINASE ISOFORM MODULATORS” (INFINITY PHARMACEUTICALS, INC., priority 2013, published 2016).
Values after ≈ are worked out from the molar mass of the structure shown. Values joined by “and” are separate entries in the source; they are usually repeats but may differ in a detail not shown here. Identical values can stand only once. “Also recorded” adds a separate entry of the source. Like-named read-outs stand apart in the source and are kept apart here.

Assays:
[1] = test system: U2932; test: DLBCL cellular growth inhibition, 72 hour CTG assay; type: cell-based; conditions: Homo sapiens
[2] = Absolute bioavailability / pharmacokinetics in BALB/c mice; type: in vivo; conditions: Mouse, PO, 10 mg/kg, suspension, calculated using AUC0-last
[3] = test system: hemodynamic and electrocardiographic parameters; test: Cardiovascular study in instrumented cynomolgus monkey; type: in vivo; conditions: male cynomolgus monkeys
From the text: Four non-naive, male monkeys implanted with radiotelemetry transmitters were utilized during the conduct of this study.

[4] = molecular target: T1, human P-glycoprotein (Homo sapiens, UniProt P08183); test: Interaction with human P-glycoprotein in Caco-2 cell monolayers; type: in vitro ADME
T1 construct: assessed in vitro using Caco-2 cell monolayers; endogenous in cells; host or cells: Caco-2 cell monolayers
T1 sequence (P08183 whole entry): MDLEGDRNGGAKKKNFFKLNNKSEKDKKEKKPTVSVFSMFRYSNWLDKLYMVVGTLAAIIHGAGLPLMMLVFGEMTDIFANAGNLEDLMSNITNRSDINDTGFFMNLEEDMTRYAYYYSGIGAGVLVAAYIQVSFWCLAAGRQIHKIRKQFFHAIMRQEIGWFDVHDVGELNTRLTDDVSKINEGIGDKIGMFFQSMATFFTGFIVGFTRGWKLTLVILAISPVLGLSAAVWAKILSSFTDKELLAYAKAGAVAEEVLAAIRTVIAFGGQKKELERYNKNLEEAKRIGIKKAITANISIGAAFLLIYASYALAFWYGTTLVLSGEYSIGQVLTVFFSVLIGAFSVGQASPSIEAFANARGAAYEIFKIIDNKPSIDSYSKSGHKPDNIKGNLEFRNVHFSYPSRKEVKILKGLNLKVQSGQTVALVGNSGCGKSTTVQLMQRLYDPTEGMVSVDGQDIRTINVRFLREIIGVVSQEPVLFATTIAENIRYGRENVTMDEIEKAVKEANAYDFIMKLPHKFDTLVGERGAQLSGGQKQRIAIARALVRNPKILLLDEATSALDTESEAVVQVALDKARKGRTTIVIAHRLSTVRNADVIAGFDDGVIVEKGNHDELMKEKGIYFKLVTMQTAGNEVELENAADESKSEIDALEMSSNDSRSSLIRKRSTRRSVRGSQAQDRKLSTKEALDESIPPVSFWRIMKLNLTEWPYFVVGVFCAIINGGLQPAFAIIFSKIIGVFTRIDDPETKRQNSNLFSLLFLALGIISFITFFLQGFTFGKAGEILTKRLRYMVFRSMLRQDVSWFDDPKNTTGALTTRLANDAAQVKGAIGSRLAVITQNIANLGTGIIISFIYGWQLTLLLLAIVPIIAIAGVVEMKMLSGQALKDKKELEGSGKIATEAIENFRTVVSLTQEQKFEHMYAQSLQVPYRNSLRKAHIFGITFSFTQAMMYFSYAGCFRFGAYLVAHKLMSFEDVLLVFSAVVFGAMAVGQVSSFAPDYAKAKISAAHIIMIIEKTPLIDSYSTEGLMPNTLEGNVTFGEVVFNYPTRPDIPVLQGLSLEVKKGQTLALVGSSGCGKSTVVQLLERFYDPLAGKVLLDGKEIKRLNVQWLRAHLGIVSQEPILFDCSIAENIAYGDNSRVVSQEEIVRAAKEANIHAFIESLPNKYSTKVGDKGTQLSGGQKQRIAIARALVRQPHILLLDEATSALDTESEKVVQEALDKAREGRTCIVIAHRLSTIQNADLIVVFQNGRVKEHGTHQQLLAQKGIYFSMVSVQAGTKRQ

[5] = In vitro genetic toxicity studies
[6] = test system: OCI-LY3; test: DLBCL cellular growth inhibition assay; type: cell-based; conditions: Homo sapiens
Description: Activation of the PI3K pathway is an important component of normal B-cell receptor (BCR) signaling and has been implicated in the pathogenesis of DLBCL. […] There was rapid modulation of phospho-AKT and phospho-PRAS40 by 30 minutes, whereas modulation of phospho-S6 was not detected until after 8 hours.

[7] = test system: Loucy; test: T-ALL growth inhibition; type: cell-based, human; conditions: Homo sapiens; PTEN deficient Loucy cell line
Description: To further explore the individual contributions of the varying PI3K isoforms on T-ALL cell growth, Loucy ALL cells were treated with doxorubicin and various PI3K inhibitors as shown in FIG. 32 at various concentrations as denoted in the figure.

[8] = Phase 1 study in hematologic malignancies: pharmacokinetics, steady state plasma concentrations; type: in vivo, human
Description: (§1) PK and PD markers were evaluated after the first dose (e.g., 8 mg BID) and at steady state. PD activity (PI3K inhibition) in whole blood was evaluated using a basophil activation assay which measured reduction in CD63 expression on the surface of basophils following ex vivo stimulation.

[9] = test system: CD63 expression on the surface of basophils; test: Basophil activation assay in whole blood of oncology patients (PI3K inhibition); type: in vivo, human; conditions: from PK/PD in patients
Description: as §1

[10] = Phase 1 study in healthy subjects: pharmacokinetics (single dose, multiple dose, food effect, DDI); type: in vivo, human; conditions: for AUC(0-24): mean (% CV)
[11] = Absolute bioavailability / pharmacokinetics in cynomolgus monkeys; type: in vivo; conditions: Monkey, PO, 5 mg/kg, suspension
[12] = test system: central nervous system; test: Neurofunctional study (FOB, motor activity) in Sprague-Dawley rat; type: in vivo; conditions: male rats, 2 h after a 350 mg/kg dose
[13] = molecular target: PI3K δ (Homo sapiens, UniProt O00329); test: Plasma concentration for suppression of PI3K-δ (PK/PD); parameters: endogenous in cells; host or cells: RAJI (human Burkitt lymphoma)
Chain of PI3K δ (O00329 whole entry): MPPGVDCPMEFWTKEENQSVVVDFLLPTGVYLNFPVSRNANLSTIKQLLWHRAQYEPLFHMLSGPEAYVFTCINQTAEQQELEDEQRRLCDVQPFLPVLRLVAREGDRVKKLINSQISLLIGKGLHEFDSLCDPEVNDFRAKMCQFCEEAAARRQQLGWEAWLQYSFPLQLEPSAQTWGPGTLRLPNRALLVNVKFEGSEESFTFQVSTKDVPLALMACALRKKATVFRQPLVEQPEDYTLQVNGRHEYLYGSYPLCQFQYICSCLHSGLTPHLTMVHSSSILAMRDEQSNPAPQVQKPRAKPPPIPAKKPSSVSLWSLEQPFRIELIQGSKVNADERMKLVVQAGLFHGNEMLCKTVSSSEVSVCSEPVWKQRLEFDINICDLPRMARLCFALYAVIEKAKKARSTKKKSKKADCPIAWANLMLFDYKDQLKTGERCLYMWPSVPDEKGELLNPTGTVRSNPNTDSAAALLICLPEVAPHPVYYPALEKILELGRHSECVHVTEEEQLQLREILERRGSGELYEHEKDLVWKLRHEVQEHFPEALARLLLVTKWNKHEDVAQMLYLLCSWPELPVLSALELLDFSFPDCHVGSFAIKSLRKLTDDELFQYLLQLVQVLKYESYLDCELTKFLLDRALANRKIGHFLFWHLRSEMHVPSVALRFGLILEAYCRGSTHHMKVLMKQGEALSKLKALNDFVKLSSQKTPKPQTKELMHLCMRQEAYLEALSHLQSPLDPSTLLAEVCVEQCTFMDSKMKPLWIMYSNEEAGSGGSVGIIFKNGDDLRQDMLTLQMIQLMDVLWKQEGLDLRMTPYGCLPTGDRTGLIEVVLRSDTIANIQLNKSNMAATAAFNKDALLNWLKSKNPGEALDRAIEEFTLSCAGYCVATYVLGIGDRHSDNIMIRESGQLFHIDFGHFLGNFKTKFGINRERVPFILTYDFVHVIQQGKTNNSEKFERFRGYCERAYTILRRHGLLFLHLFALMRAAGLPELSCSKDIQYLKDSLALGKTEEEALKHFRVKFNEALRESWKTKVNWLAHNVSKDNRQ
Chain of PI3K δ (P27986 whole entry partner): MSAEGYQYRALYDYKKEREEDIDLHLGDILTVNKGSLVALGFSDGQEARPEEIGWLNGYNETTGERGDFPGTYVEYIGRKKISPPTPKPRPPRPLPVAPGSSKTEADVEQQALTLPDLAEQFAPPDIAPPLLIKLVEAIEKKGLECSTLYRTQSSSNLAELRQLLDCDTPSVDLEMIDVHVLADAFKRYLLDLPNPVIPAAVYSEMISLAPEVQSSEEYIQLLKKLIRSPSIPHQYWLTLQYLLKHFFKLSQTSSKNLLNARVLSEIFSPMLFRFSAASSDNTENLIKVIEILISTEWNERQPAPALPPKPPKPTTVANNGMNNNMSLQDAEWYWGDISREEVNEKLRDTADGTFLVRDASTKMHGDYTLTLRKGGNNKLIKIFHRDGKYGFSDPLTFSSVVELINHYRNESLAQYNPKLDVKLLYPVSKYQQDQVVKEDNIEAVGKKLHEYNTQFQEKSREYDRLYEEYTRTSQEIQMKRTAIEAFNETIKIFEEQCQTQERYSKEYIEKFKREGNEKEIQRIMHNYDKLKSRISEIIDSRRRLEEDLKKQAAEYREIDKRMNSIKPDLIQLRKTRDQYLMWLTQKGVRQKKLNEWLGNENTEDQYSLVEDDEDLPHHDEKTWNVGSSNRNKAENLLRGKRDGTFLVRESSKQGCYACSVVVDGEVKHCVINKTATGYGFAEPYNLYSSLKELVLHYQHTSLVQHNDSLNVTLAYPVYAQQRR

C[C@H](Nc1ncnc2[nH]cnc12)c1cc2cccc(Cl)c2c(=O)n1-c1ccccc1 [Compound 292]
Any AE (25 mg BID (n = 34)): 27
Any AE, Grade 3 (25 mg BID (n = 34)): 7
Any AE, Grade 4 (25 mg BID (n = 34)): 5
New Grade 3 ALT (25 mg BID (n = 34)): 3
New Grade 3 ANC (25 mg BID (n = 34)): 2
New Grade 4 ANC (25 mg BID (n = 34)): 4
Related AE (25 mg BID (n = 34)): 18
Related Grade 3 AE (25 mg BID (n = 34)): 4/4
Related Grade 4 AE (25 mg BID (n = 34)): 4/4
new Grade >3 neutropenia (20 patients, 8-50 mg BID): 6 n
patients with AEs Grade >3 (20 patients, 8-50 mg BID): 7 patients
patients with adverse events (AEs) (20 patients, 8-50 mg BID): 13 patients
dose limiting toxicity observed to date (20 patients, 15 mg dose cohort): Grade 4 neutropenia
discontinuations due to treatment related AEs (55 patients): three
DLTs (55 patients, 8-75 mg BID): Grade 4 neutropenia (15 mg BID) and Grade 3 cellulitis (wound infection, 75 mg BID)
dose-related trends in related Grade 3 or Grade 4 AEs (55 patients, 8-75 mg BID): No dose-related trends
Any AE (Safety Population (n = 55)): 46
Any AE, Grade 3 (Safety Population (n = 55)): 18
Any AE, Grade 4 (Safety Population (n = 55)): 8
New Grade 3 ALT (Safety Population (n = 55)): 5
New Grade 3 ANC (Safety Population (n = 55)): 10
New Grade 4 ANC (Safety Population (n = 55)): 5
Related AE (Safety Population (n = 55)): 31
Related Grade 3 AE (Safety Population (n = 55)): 14
Related Grade 4 AE (Safety Population (n = 55)): 6
Deaths on Study (Safety Population (n = 55), all due to disease progression): 3 n
IC50 [1]: > 50 µM
Foral [2]: 7% and 7i %
effects on hemodynamic or electrocardiographic parameters ([3]; single oral dose of 5, 30, and 150 mg/kg): No Compound 292-related effects
waveform abnormalities or arrhythmias ([3]; up to 150 mg/kg): no waveform abnormalities or arrhythmias
P-gp substrate status [4]: is a P-gp substrate
inhibition of active transport of other P-gp substrates [4]: has the potential to inhibit
genetic toxicity [5]: no genetic toxicity
IC50 [6]: > 50 µM
IC50 [7]: 245 nM
mean predose steady state plasma concentration ([8]; 25 mg BID, C2D1): 390 ng/mL
dose dependence of plasma Cmax and AUC ([8]; patients with hematologic malignancies, BID dosing): dose-proportional increases; also recorded: dose-proportional PK; also recorded: linear PK profile; also recorded: increases proportionally with doses
time of maximum plasma concentration post-dosing ([8]; steady state C2D1, 25 mg and 75 mg BID): about 1 hour
dose achieving complete inhibition of PI3K-δ [9]: ≥ 15 mg BID
doses that increasingly suppress PI3K-γ [9]: ≥ 25 mg BID
increase of Cmax in the presence of ketoconazole ([10]; DDI portion, 200 mg ql2h ketoconazole): approximately 66%
accumulation ([10]; following 14 days of Q12 h oral administration): less than 2 fold
dose dependence of exposure (Cmax and AUC) ([10]; healthy subjects, across the dose ranges evaluated): increased proportionally to dose; also recorded: dose-proportional pharmacokinetics
AUC(0-24) ([10]; single dose 1 mg): 149 (67) ng*hr/mL
AUC(0-24) ([10]; single dose 2 mg): 289 (43) ng*hr/mL
AUC(0-24) ([10]; single dose 5 mg): 733 (5) ng*hr/mL
AUC(0-24) ([10]; single dose 10 mg): 891 (14) ng*hr/mL
AUC(0-24) ([10]; single dose 20 mg): 2193 (16) ng*hr/mL
AUC(0-24) ([10]; single dose 30 mg): 3263 (38) ng*hr/mL
Foral [11]: 40%
locomotor activity [12]: Significant decreases
IC90 [13]: 0.361 µg/mL (≈ 0.866 µM)
